≈ marks a conversion by molar mass, not a printed value. Calls of active or inactive are those of the source. The rule behind the calls is not given here.

For one data set, the system named is NIH3T3. Description: Cytotoxicity against mouse NIH/3T3 cells after 96 hrs by SRB assay. Format: cell-based. The note with it: NIH3T3, 96 h.
In data set [1] the test system is A2780. The data set can be described thus: Induction of apoptosis in human A2780 cells assessed as chromatin condensation at 1 uM after 24 hrs by acridine orange/propidium iodide staining-based fluorescence microscopy. Format: functional, cell-based.
The subject of data set [2] is A2780. Description: Induction of apoptosis in human A2780 cells assessed as cell shrinkage at 1 uM after 24 hrs by acridine orange/propidium iodide staining-based fluorescence microscopy. Format: functional.
Data set [3] concerns A2780. Description: Induction of apoptosis in human A2780 cells assessed as caspase 8 activity at 1 uM after 24 hrs relative to control. Format: functional.
Data set [4] concerns A2780. Description: Induction of apoptosis in human A2780 cells assessed as caspase 9 activity at 1 uM after 6 hrs relative to control. Format: functional.
The subject of data set [5] is A2780. Description: Induction of apoptosis in human A2780 cells assessed as caspase 3 activity at 1 uM after 24 hrs relative to control. Format: functional.
Data set [6] deals with A2780. The data set can be described thus: Induction of apoptosis in human A2780 cells assessed as cholesterol crystal formation at 1 uM by acridine orange/propidium iodide staining-based fluorescence microscopy. Format: functional, cell-based. The note with it: TDE = time-dependent effect.
The subject of data set [7] is A2780. Description: Induction of apoptosis in human A2780 cells assessed as caspase 8 activity at 1 uM after 12 hrs relative to control. Format: functional.
The subject of data set [8] is A2780. The data set can be described thus: Induction of apoptosis in human A2780 cells assessed as caspase 9 activity at 1 uM after 12 hrs relative to control. Format: functional.
Data set [9] relates to A2780. Description: Induction of apoptosis in human A2780 cells assessed as caspase 8 activity at 1 uM after 6 hrs relative to control. Format: functional.
Data set [10] concerns A2780. The data set can be described thus: Induction of apoptosis in human A2780 cells assessed as cholesterol crystal formation after 24 hrs by acridine orange/propidium iodide staining-based fluorescence microscopy. Format: functional, cell-based.
For data set [11], the system named is A2780. Description: Induction of apoptosis in human A2780 cells assessed as caspase 9 activity at 1 uM after 24 hrs relative to control. Format: functional.
Data set [12] concerns A2780. Description: Induction of apoptosis in human A2780 cells assessed as caspase 3 activity at 1 uM after 12 hrs relative to control. Format: functional.
Data set [13] relates to A2780. Description: Induction of apoptosis in human A2780 cells assessed as caspase 3 activity at 1 uM after 6 hrs relative to control. Format: functional.
A further data set deals with 8505C. Description: Cytotoxicity against human 8505C cells after 96 hrs by SRB assay. Format: functional, cell-based. In general terms: In SRB staining, fixed cells bind dye roughly in proportion to their protein.
The subject of data set [14] is A2780. The data set can be described thus: Induction of apoptosis in human A2780 cells at 2 to 6 times IC50 after 6 to 24 hrs by acridine orange/propidium iodide staining-based fluorescence microscopy. Format: functional, cell-based.
The test system of data set [15] is A2780. Description: Induction of apoptosis in human A2780 cells assessed as caspase 3 activity at 24 uM after 6 hrs relative to control. Format: functional.
In data set [16] the test system is A2780. The data set can be described thus: Induction of apoptosis in human A2780 cells assessed as caspase 8 activity at 60 uM after 24 hrs relative to control. Format: functional.
Data set [17] relates to A2780. The data set can be described thus: Induction of apoptosis in human A2780 cells assessed as caspase 3 activity at 60 uM after 12 hrs relative to control. Format: functional.
Data set [18] in a line: Solubility of the compound in buffer at 10 uM after 90 mins by HPLC analysis. Format: physicochemical.
The next data set relates to MCF7. The data set can be described thus: Cytotoxicity against human MCF7 cells after 96 hrs by SRB assay. The note with it: MCF7, 96 h. Format: functional, cell-based.
For data set [19], the system named is A2780. The data set can be described thus: Induction of apoptosis in human A2780 cells assessed as phosphatidylserine externalization at 60 uM after 6 hrs by annexin V/propidium iodide staining-based FACS analysis. Format: functional.
For data set [20], the system named is A2780. The data set can be described thus: Cell cycle arrest in human A2780 cells assessed as accumulation at G1/G0 phase at 12 uM after 12 hrs by annexin V/propidium iodide staining-based FACS analysis. Format: functional. (In general: Flow cytometry measures light scatter and fluorescence of single cells or particles in a stream.)
Data set [21] can be described thus: Cytotoxicity against human 518A2 cells after 96 hrs by SRB assay. The note with it: 518A2, 96 h. Format: functional, cell-based.
Data set [22] deals with A2780. Description: Induction of apoptosis in human A2780 cells assessed as caspase 3 activity at 24 uM after 12 hrs relative to control. Format: functional.
For data set [23], the system named is A2780. The data set can be described thus: Cytotoxicity against human A2780 cells after 96 hrs by SRB assay. The note with it: A2780, 96 h. Format: functional, cell-based.
Data set [24] concerns A2780. Description: Induction of apoptosis in human A2780 cells assessed as caspase 9 activity at 24 uM after 12 hrs relative to control. Format: functional.
Data set [25] deals with A2780. The data set can be described thus: Induction of apoptosis in human A2780 cells assessed as chromatin condensation at 24 to 60 uM after 24 hrs by acridine orange/propidium iodide staining-based fluorescence microscopy. Format: functional, cell-based.
The subject of data set [26] is A2780. Description: Cell cycle arrest in human A2780 cells assessed as accumulation at S phase at 24 uM after 6 hrs by annexin V/propidium iodide staining-based FACS analysis. Format: functional.
Another data set has as its system A549. The data set can be described thus: Cytotoxicity against human A549 cells after 96 hrs by SRB assay. Format: functional, cell-based. The note with it: A549, 96 h.
Data set [27] has as its system A2780. The data set can be described thus: Induction of apoptosis in human A2780 cells assessed as caspase 8 activity at 24 uM after 24 hrs relative to control. Format: functional.
The test system of data set [28] is A2780. The data set can be described thus: Induction of apoptosis in human A2780 cells assessed as caspase 8 activity at 24 uM after 6 hrs relative to control. Format: functional.
Data set [29] deals with A2780. Description: Induction of apoptosis in human A2780 cells assessed as caspase 8 activity at 60 uM after 12 hrs relative to control. Format: functional.
Another data set deals with HT-29. The data set can be described thus: Cytotoxicity against human HT-29 cells after 96 hrs by SRB assay. Format: functional, cell-based. The note with it: HT-29, 96 h.
Data set [30] deals with A2780. Description: Induction of apoptosis in human A2780 cells assessed as secondary necrotic cells at 24 to 60 uM after 6 to 24 hrs by annexin V/propidium iodide staining-based FACS analysis. Format: functional, cell-based.
For data set [31], the system named is A2780. Description: Induction of apoptosis in human A2780 cells assessed as caspase 9 activity at 60 uM after 24 hrs relative to control. Format: functional.
The test system of data set [32] is A2780. Description: Induction of apoptosis in human A2780 cells assessed as cholesterol crystal formation at 24 to 60 uM by acridine orange/propidium iodide staining-based fluorescence microscopy. Format: functional, cell-based. The note with it: TDE = time-dependent effect.
Data set [33] deals with A2780. The data set can be described thus: Induction of apoptosis in human A2780 cells assessed as caspase 8 activity at 24 uM after 12 hrs relative to control. Format: functional.
The test system of data set [34] is A2780. The data set can be described thus: Induction of apoptosis in human A2780 cells assessed as cell shrinkage at 24 to 60 uM after 24 hrs by acridine orange/propidium iodide staining-based fluorescence microscopy. Format: functional.
Data set [35] has as its system A2780. Description: Induction of apoptosis in human A2780 cells assessed as caspase 9 activity at 24 uM after 24 hrs relative to control. Format: functional.
The subject of data set [36] is A2780. The data set can be described thus: Induction of apoptosis in human A2780 cells assessed as caspase 9 activity at 24 uM after 6 hrs relative to control. Format: functional.
Data set [37] deals with A2780. The data set can be described thus: Induction of apoptosis in human A2780 cells assessed as caspase 3 activity at 60 uM after 6 hrs relative to control. Format: functional.
The test system of data set [38] is A2780. The data set can be described thus: Cell cycle arrest in human A2780 cells assessed as early detachment of cells at 24 to 60 uM after 24 hrs by annexin V/propidium iodide staining-based FACS analysis. Format: functional.
Data set [39] relates to A2780. The data set can be described thus: Induction of apoptosis in human A2780 cells assessed as DNA fragmentation at 0.024 to 0.060 mM after 6 to 24 hrs by agarose gel electrophoresis. Format: functional, cell-based.
The test system of data set [40] is A2780. The data set can be described thus: Induction of apoptosis in human A2780 cells assessed as caspase 9 activity at 60 uM after 12 hrs relative to control. Format: functional.
Data set [41] relates to A2780. Description: Induction of apoptosis in human A2780 cells assessed as caspase 9 activity at 60 uM after 6 hrs relative to control. Format: functional.
Data set [42] relates to A2780. The data set can be described thus: Induction of apoptosis in human A2780 cells assessed as caspase 3 activity at 60 uM after 24 hrs relative to control. Format: functional.
Data set [43] has as its system A2780. The data set can be described thus: Induction of apoptosis in human A2780 cells assessed as caspase 8 activity at 60 uM after 6 hrs relative to control. Format: functional.
Data set [44] has as its system A2780. Description: Induction of apoptosis in human A2780 cells assessed as caspase 3 activity at 24 uM after 24 hrs relative to control. Format: functional.

Turning to `CC1(C)CC[C@]2(C(=O)O)CC[C@]3(C)C(=CC[C@@H]4[C@@]5(C)C[C@@H](O)[C@H](O)C(C)(C)[C@@H]5CC[C@]43C)[C@@H]2C1` [MASLINIC ACID], in the data set with NIH3T3, the IC50 – broadly, the point on the concentration scale where inhibition reaches its midpoint – came to 21.1 µM. This counts as double-digit micromolar.

Consider `CN[C@@H]1C[C@H]2O[C@@](C)([C@@H]1OC)n1c3ccccc3c3c4c(c5c6ccccc6n2c5c31)C(=O)NC4` [STAUROSPORINE], for which the outcome in the data set with A2780 [1] and with A2780 [2] was Active. Also, the Activity is 79% with A2780 [3]; 38% in the data set on A2780 [4]; 57% in the data set with A2780 [5]; “tde” in the data set on A2780 [6]; 52% in the data set with A2780 [7]; 3% with A2780 [8]. Also, the Activity in the data set on A2780 [9] was 51%; with A2780 [10], “Dose-dependent effect”; in the data set with A2780 [11], 33%; in the data set with A2780 [12] it was 52%; in the data set with A2780 [13] it was 68%.

For `CC1(C)CC[C@]2(C(=O)OCCCOc3ccccc3)CC[C@]3(C)C(=CC[C@@H]4[C@@]5(C)C[C@@H](O)[C@H](O)C(C)(C)[C@@H]5CC[C@]43C)[C@@H]2C1`, the IC50 with 8505C is 13.3 µM; in the data set with NIH3T3, 12.7 µM; in the data set on MCF7, 13.6 µM; in data set [21] it was 12.6 µM; with A2780 [23] it was 10.6 µM; with A549 it was 13.7 µM. In the data set on HT-29, this compound came in with an IC50 of 12.5 µM. The result in the data set on A2780 [14], in the data set on A2780 [20], with A2780 [25], with A2780 [26], in the data set on A2780 [30] and with A2780 [34] was Active. Also, the result in the data set on A2780 [38] and in the data set with A2780 [39] was Active. In addition, the Activity in the data set on A2780 [15] is given as 2%; with A2780 [16] it was 39%; with A2780 [17], 37%; with A2780 [19], 80%; in the data set with A2780 [22], 1%; in the data set with A2780 [24], -2%. Also, the Activity in the data set on A2780 [27] was 27%; in the data set with A2780 [28] it was 2%; with A2780 [29] it was 44%; in the data set with A2780 [31], 21%; in the data set with A2780 [32], “tde”; in the data set with A2780 [33], 1%. In addition, the Activity is 6% with A2780 [35]; 0% in the data set with A2780 [36]; 29% with A2780 [37]; “Dose-dependent effect” with A2780 [10]; 2% in the data set on A2780 [40]; 3% with A2780 [41]. The Activity in the data set on A2780 [42] is listed as 31%; in the data set with A2780 [43], 25%; in the data set with A2780 [44], 25%. For the same compound, in [18], the concentration in solution (solubility at 1.5 h, 10 µM) came to 110 µM (≈ 66.5 µg/mL).
